pIC50: −log10 of the molar value.
Legend:
[1] = target: T1, GST-tagged KRAS-G12D (2-169) (Homo sapiens, UniProt P01116, G12D); assay: Nucleotide exchange assay (NEA), SOS-mediated, HTRF, KRAS G12D; format: biochemical; conditions: Table 4; IC50 extracted at 30 min
T1 construct: GST-tagged KRAS-G12D (2-169, Reaction Biology, MSC-11-539); purchased Reaction Biology MSC-11-539 (KRAS G12D); MSC-11-502 (SOS1cat)
How it was run: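 IC50 values come from 4-parameter fits at the 30 min time point of an SOS-driven exchange read by HTRF, normalised to DMSO (0%) and SOS-free blank (100%). Final reaction: 5 nM GST-KRAS-G12D (2-169), 20 nM SOScat, 150 nM fluorescent GTP-DY-647P1, after 1 h RT compound preincubation with KRAS and Tb-cryptate anti-GST.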

[2] = test system: AGS cells (KRAS G12D), phospho-ERK; assay: pERK In Cell Western (ICW) assay (Method B), AGS cells; format: cell-based; conditions: Homo sapiens, Table 4, pERK, 3 hours, read-out: ICW-AGS
Method: pERK ICW is a high throughput screening assay to evaluate the cellular potency of mutant KRAS small molecule inhibitors. KRAS mutant cell lines AGS and GP2D (KRAS^G12D) were purchased from ATCC and maintained respectively in RPMI and DMEM medium supplemented with 10% fetal bovine serum and Penicillin/Streptomycin.
Cells grown in exponential phase were trypsinized, resuspended in fresh media, and viable cells were counted using a cell counter with Trypan Blue (BioRad TC20). Cells were seeded into 384-well plate (Greiner 781091) at density of 5,000 cells/well for AGS and 10,000 cells/well for GP2D and allowed to grow overnight in a 37° C. CO2 incubator. The next day, compounds were dispensed into wells with a ½ log, 10-point serial dilution and top concentration of […] using Tecan D300e dispenser and incubated for 3 hours in a 37° C. CO2 incubator. Cells were then fixed with paraformaldehyde (Electron Microscopy Sciences, 15710, 4% final concentration) for 30 min, permeabilized with wash buffer (1×PBS+0.1% Triton X-100) for 30 min and blocked with Odyssey blocking buffer (Li—COR 927-70001) for 1 hour, all at room temperature (RT). Phospho-ERK antibody (CST 4370L) was diluted 1:500 in Odyssey blocking+0.2% Tween 20 and incubated with cells overnight at 4° C. The next day, plates were washed 5× with wash buffer, incubated with IRDye 800 CW, Goat anti-Rabbit secondary antibody (Li—COR 926-32211, 1:500) and DRAQ5 (CST 4084L, 1:5,000) diluted in Odyssey blocking+0.2% Tween 20 for 1 hour, washed 5×, and imaged on an Odyssey CLx imaging system.
For data analysis, signal intensities from 800 (phosphor-ERK) and 700 (DRAQ5) channels were extracted, and phospho-ERK signals were normalized to DRAQ5 signals for each well and percent of DMSO control values were computed. Data were then imported into Graphpad Prism to compute half-maximal inhibitory concentrations (IC50) using a 4-parameter variable slope model. Z-factor for each plate was computed from signals derived from wells treated with either DMSO or […] of Trametinib. AGS pERK ICW (Method B) IC50 (uM) values of selected compounds are depicted in Table 2 with compounds having a value 0.001 uM to 0.01 uM as ++++; >0.01 uM to 0.1 uM as +++; >0.1 uM to 1 uM as ++; 1 uM to 10 uM as + and >10 uM as NA.

T1 sequence (P01116 2-169 isoform P01116-2 G12D): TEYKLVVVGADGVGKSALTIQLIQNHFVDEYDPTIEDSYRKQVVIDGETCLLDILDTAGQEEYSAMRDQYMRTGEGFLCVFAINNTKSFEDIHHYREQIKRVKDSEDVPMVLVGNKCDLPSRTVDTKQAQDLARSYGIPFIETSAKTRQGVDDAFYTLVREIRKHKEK

Work on `N#Cc1c(N)sc2c1C1(CC2)CN(c2nc(OC[C@@]34CCCN3C[C@H](F)C4)nc(N3CCC[C@]4(C3)NC(=O)NC4=O)c2F)C1` [Compound 7, 2-amino-1′-[6-[(5R)-2,4-dioxo-1,3,9-triazaspiro[4.5]decan-9-yl]-5-fluoro-2-[[(2R,8S)-2-fluoro-1,2,3,5,6,7-hexahydropyrrolizin-8-yl]methoxy]pyrimidin-4-yl]spiro[5,6-dihydrocyclopenta[b]thiophene-4,3′-azetidine]-3-carbonitrile] yielded a pIC50 [1] of over 8.00 and a pIC50 [2] of 5.00 to 6.00.
For `CN(C)C(=O)c1cc2n(n1)CCCN(c1nc(OC[C@@]34CCCN3C[C@H](F)C4)nc(N3CC4(CCc5sc(N)c(C#N)c54)C3)c1C#N)C2` [Compound 8, 5-[6-(2-amino-3-cyano-spiro[5,6-dihydrocyclopenta[b]thiophene-4,3′-azetidine]-1′-yl)-5-cyano-2-[[(2R,8S)-2-fluoro-1,2,3,5,6,7-hexahydropyrrolizin-8-yl]methoxy]pyrimidin-4-yl]-N,N-dimethyl-4,6,7,8-tetrahydropyrazolo[1,5-a][1,4]diazepine-2-carboxamide], the pIC50 [1] was over 8.00 and the pIC50 [2] was 7.00 to 8.00.
`CN(C)C(=O)c1nn2c(c1Cl)CN(c1nc(OC[C@@]34CCCN3C[C@H](F)C4)nc(N3CC4(CCc5sc(N)c(C#N)c54)C3)c1F)CCC2` [Compound 9, 5-[6-(2-amino-3-cyano-spiro[5,6-dihydrocyclopenta[b]thiophene-4,3′-azetidine]-1′-yl)-5-fluoro-2-[[(2R,8S)-2-fluoro-1,2,3,5,6,7-hexahydropyrrolizin-8-yl]methoxy]pyrimidin-4-yl]-3-chloro-N,N-dimethyl-4,6,7,8-tetrahydropyrazolo[1,5-a][1,4]diazepine-2-carboxamide] was tested, and the pIC50 [1] was over 8.00 and the pIC50 [2] was 6.00 to 7.00.
In the case of `CN(C)C(=O)c1nn2c(c1Cl)CN(c1nc(OC[C@@]34CCCN3C[C@H](F)C4)nc(N3CC4(CCCCc5sc(N)c(C#N)c54)C3)c1C#N)CCC2` [Compound 10, 5-[6-(2-amino-3-cyano-spiro[5,6,7,8-tetrahydrocyclohepta[b]thiophene-4,3′-azetidine]-1′-yl)-5-cyano-2-[[(2R,8S)-2-fluoro-1,2,3,5,6,7-hexahydropyrrolizin-8-yl]methoxy]pyrimidin-4-yl]-3-chloro-N,N-dimethyl-4,6,7,8-tetrahydropyrazolo[1,5-a][1,4]diazepine-2-carboxamide], the pIC50 [1] was over 8.00 and the pIC50 [2] was 7.00 to 8.00.
In the case of `N#Cc1c(N2CC3(CCc4sc(N)c(C#N)c43)C2)nc(OC[C@@]23CCCN2C[C@H](F)C3)nc1N1CCC[C@]2(C1)NC(=O)NC2=O` [Compound 11, 2-amino-1′-[5-cyano-6-[(5R)-2,4-dioxo-1,3,9-triazaspiro[4.5]decan-9-yl]-2-[[(2R,8S)-2-fluoro-1,2,3,5,6,7-hexahydropyrrolizin-8-yl]methoxy]pyrimidin-4-yl]spiro[5,6-dihydrocyclopenta[b]thiophene-4,3′-azetidine]-3-carbonitrile], the pIC50 [1] was over 8.00 and the pIC50 [2] was 5.00 to 6.00.
With `N#Cc1c(N2CCCC3(C2)NC(=O)NC3=O)nc(OC[C@@]23CCCN2C[C@H](F)C3)nc1N1CC2(CCc3sc(N)c(C#N)c32)C1` (stereo partly drawn) [Compound 12, 2-amino-1′-[5-cyano-6-(2,4-dioxo-1,3,9-triazaspiro[4.5]decan-9-yl)-2-[[(2R,8S)-2-fluoro-1,2,3,5,6,7-hexahydropyrrolizin-8-yl]methoxy]pyrimidin-4-yl]spiro[5,6-dihydrocyclopenta[b]thiophene-4,3′-azetidine]-3-carbonitrile] the pIC50 [1] was over 8.00 and the pIC50 [2] was 5.00 to 6.00.
In the case of `CC(=O)c1nn2c(c1Cl)CN(c1nc(OC[C@@]34CCCN3C[C@H](F)C4)nc(N3CC4(CCc5sc(N)c(C#N)c54)C3)c1C#N)CCC2` [Compound 13, 1′-[6-(2-acetyl-3-chloro-4,6,7,8-tetrahydropyrazolo[1,5-a][1,4]diazepin-5-yl)-5-cyano-2-[[(2R,8S)-2-fluoro-1,2,3,5,6,7-hexahydropyrrolizin-8-yl]methoxy]pyrimidin-4-yl]-2-amino-spiro[5,6-dihydrocyclopenta[b]thiophene-4,3′-azetidine]-3-carbonitrile], the pIC50 [1] was over 8.00 and the pIC50 [2] was 7.00 to 8.00.
In the case of `CC1CC2(CN(c3nc(OC[C@@]45CCCN4C[C@H](F)C5)nc(N4CCCn5nc(C(=O)N(C)C)c(Cl)c5C4)c3C#N)C2)c2c1sc(N)c2C#N` (stereo partly drawn) [Compound 14, 5-[6-(2-amino-3-cyano-6-methyl-spiro[5,6-dihydrocyclopenta[b]thiophene-4,3′-azetidine]-1′-yl)-5-cyano-2-[[(2R,8S)-2-fluoro-1,2,3,5,6,7-hexahydropyrrolizin-8-yl]methoxy]pyrimidin-4-yl]-3-chloro-N,N-dimethyl-4,6,7,8-tetrahydropyrazolo[1,5-a][1,4]diazepine-2-carboxamide], the pIC50 [1] was over 8.00 and the pIC50 [2] was 7.00 to 8.00.
`N#Cc1c(N)sc2c1C1(CC2)CN(c2nc(OC[C@@]34CCCN3C[C@H](F)C4)nc(N3C[C@H]4CC[C@@H](C3)N4)c2F)C1` [Compound 15, 2-amino-1′-[6-(3,8-diazabicyclo[3.2.1]octan-3-yl)-5-fluoro-2-[[(2R,8S)-2-fluoro-1,2,3,5,6,7-hexahydropyrrolizin-8-yl]methoxy]pyrimidin-4-yl]spiro[5,6-dihydrocyclopenta[b]thiophene-4,3′-azetidine]-3-carbonitrile] was tested, and the pIC50 [1] was over 8.00 and the pIC50 [2] was 7.00 to 8.00.
In the case of `Cc1noc(-c2cc3n(n2)CCCN(c2nc(OC[C@@]45CCCN4C[C@H](F)C5)nc(N4CC5(CCc6sc(N)c(C#N)c65)C4)c2C#N)C3)n1` [Compound 16, 2-amino-1′-[5-cyano-6-[2-(3-methyl-1,2,4-oxadiazol-5-yl)-4,6,7,8-tetrahydropyrazolo[1,5-a][1,4]diazepin-5-yl]-2-[[(2R,8S)-2-fluoro-1,2,3,5,6,7-hexahydropyrrolizin-8-yl]methoxy]pyrimidin-4-yl]spiro[5,6-dihydrocyclopenta[b]thiophene-4,3′-azetidine]-3-carbonitrile], the pIC50 [1] was over 8.00 and the pIC50 [2] was 6.00 to 7.00.
With `Cc1noc(-c2nn3c(c2Cl)CN(c2nc(OC[C@@]45CCCN4C[C@H](F)C5)nc(N4CC5(CCc6sc(N)c(C#N)c65)C4)c2C#N)CCC3)n1` [Compound 17, 2-amino-1′-[6-[3-chloro-2-(3-methyl-1,2,4-oxadiazol-5-yl)-4,6,7,8-tetrahydropyrazolo[1,5-a][1,4]diazepin-5-yl]-5-cyano-2-[[(2R,8S)-2-fluoro-1,2,3,5,6,7-hexahydropyrrolizin-8-yl]methoxy]pyrimidin-4-yl]spiro[5,6-dihydrocyclopenta[b]thiophene-4,3′-azetidine]-3-carbonitrile] the pIC50 [1] was over 8.00 and the pIC50 [2] was 6.00 to 7.00.
`CN(C)C(=O)c1nn2c(c1Cl)CN(c1nc(OCC34CCCN3CCC4)nc(N3CC4(CCc5sc(N)c(C#N)c54)C3)c1C#N)CCC2` [Compound 18, 5-[6-(2-amino-3-cyano-spiro[5,6-dihydrocyclopenta[b]thiophene-4,3′-azetidine]-1′-yl)-5-cyano-2-(1,2,3,5,6,7-hexahydropyrrolizin-8-ylmethoxy)pyrimidin-4-yl]-3-chloro-N,N-dimethyl-4,6,7,8-tetrahydropyrazolo[1,5-a][1,4]diazepine-2-carboxamide] gave a pIC50 [1] of over 8.00 and a pIC50 [2] of 6.00 to 7.00.
`N#Cc1c(N2CCCCCC2)nc(OC[C@@]23CCCN2C[C@H](F)C3)nc1N1CC2(CCc3sc(N)c(C#N)c32)C1` [Compound 19, 2-amino-1′-[6-(azepan-1-yl)-5-cyano-2-[[(2R)-2-fluoro-1,2,3,5,6,7-hexahydropyrrolizin-8-yl]methoxy]pyrimidin-4-yl]spiro[5,6-dihydrocyclopenta[b]thiophene-4,3′-azetidine]-3-carbonitrile] was tested, and the pIC50 [1] was 7.00 to 8.00 and the pIC50 [2] was 5.00 to 6.00.
`CS(=O)(=O)c1cc2n(n1)CCCN(c1nc(OC[C@@]34CCCN3C[C@H](F)C4)nc(N3CC4(CCc5sc(N)c(C#N)c54)C3)c1C#N)C2` [Compound 21, 2-amino-1′-[5-cyano-2-[[(2R,8S)-2-fluoro-1,2,3,5,6,7-hexahydropyrrolizin-8-yl]methoxy]-6-(2-methylsulfonyl-4,6,7,8-tetrahydropyrazolo[1,5-a][1,4]diazepin-5-yl)pyrimidin-4-yl]spiro[5,6-dihydrocyclopenta[b]thiophene-4,3′-azetidine]-3-carbonitrile] was tested, and the pIC50 [1] was over 8.00 and the pIC50 [2] was 6.00 to 7.00.

Reference: patent US12145947B2, “Pyrimidine based modulators and uses thereof” (Quanta Therapeutics, Inc., priority 2022, dated 2024)
